Test results: ChEMBL document CHEMBL1136550, “Discovery of orally bioavailable NK1 receptor antagonists” (Bioorg Med Chem Lett, 2003)
Values after ≈ are worked out from the molar mass of the structure shown.

Legend:
[1] = molecular target: T1, Substance-P receptor (Homo sapiens, UniProt P25103); assay: Displacement of [3H]-substance P from human NK1 receptor expressed in CHO cells; assay type: cell-based
[2] = test system: Caco-2; assay: Caco-2 permeability was measured; assay type: functional, cell-based; conditions: Homo sapiens
[3] = species: Rattus norvegicus; assay: Inhibition of contraction induced by 100 mM KCl in isolated rat aorta; assay type: functional
[4] = LogD distribution coefficient between octanol and PBS at pH7.4; assay type: physicochemical; conditions: pH 7.4, read-out: LogD7.4
[5] = Solubility was measured; assay type: physicochemical
[6] = molecular target: T1, Substance-P receptor; assay: Displacement of [3H]-substance P from human NK1 receptor expressed in CHO cells, at 10e-5 M; assay type: cell-based
[7] = test system: Cavia porcellus; assay: Inhibition of SP-induced pulmonary edema in guinea-pig 60 min after oral administration at a dose of 10 mg/kg; assay type: functional; conditions: 1 h
[8] = test system: Cavia porcellus; assay: Inhibition of SP-induced pulmonary edema in guinea-pig 240 min after oral administration at a dose of 10 mg/kg; assay type: functional; conditions: 4 h
[9] = test system: Cavia porcellus; assay: Inhibition of SP-induced pulmonary edema in guinea-pig 120 min after oral administration at a dose of 10 mg/kg; assay type: functional; conditions: 2 h
[10] = test system: Cavia porcellus; assay: Inhibition of SP-induced pulmonary edema in guinea-pig 30 min after oral administration at a dose of 10 mg/kg; assay type: functional; conditions: 0.5 h
[11] = pKa value was evaluated; assay type: physicochemical
[12] = test system: Cavia porcellus; assay: Inhibition of SP-induced pulmonary edema in guinea-pig 30 min after oral administration at a dose of 1 mg/kg; assay type: functional; conditions: 0.5 h
[13] = test system: Cavia porcellus; assay: Inhibition of SP-induced pulmonary edema in guinea-pig 240 min after oral administration at a dose of 1 mg/kg; assay type: functional; conditions: 4 h
[14] = test system: Cavia porcellus; assay: Inhibition of SP-induced pulmonary edema in guinea-pig 60 min after oral administration at a dose of 1 mg/kg; assay type: functional; conditions: 1 h

T1 sequence (P25103 whole entry): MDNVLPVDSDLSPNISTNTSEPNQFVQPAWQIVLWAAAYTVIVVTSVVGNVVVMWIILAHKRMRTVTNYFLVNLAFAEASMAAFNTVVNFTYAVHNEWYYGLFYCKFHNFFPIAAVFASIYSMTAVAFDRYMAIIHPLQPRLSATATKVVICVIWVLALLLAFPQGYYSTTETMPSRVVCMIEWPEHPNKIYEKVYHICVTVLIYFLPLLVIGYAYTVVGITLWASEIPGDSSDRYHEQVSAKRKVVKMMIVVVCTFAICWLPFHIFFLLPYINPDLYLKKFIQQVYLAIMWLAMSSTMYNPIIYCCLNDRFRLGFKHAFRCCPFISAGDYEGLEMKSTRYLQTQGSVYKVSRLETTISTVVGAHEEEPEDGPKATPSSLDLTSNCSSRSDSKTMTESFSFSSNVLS

CN1CCN(C(COCc2cc(C(F)(F)F)cc(C(F)(F)F)c2)c2ccccc2)CC1 (stereo not drawn)
Ki [1]: 1.58 nM

C[C@H](OC[C@@H](c1ccccc1)N1CCN(CC(=O)O)CC1)c1cc(C(F)(F)F)cc(C(F)(F)F)c1
Ki [1]: 3.16 nM

Cc1ccccc1C(COCc1cc(C(F)(F)F)cc(C(F)(F)F)c1)N1CCNCC1 (stereo not drawn)
Ki [1]: 1 nM

FC(F)(F)c1cc(COCC(c2ccccc2Cl)N2CCNCC2)cc(C(F)(F)F)c1 (stereo not drawn)
Ki [1]: 1.58 nM

FC(F)(F)c1cc(COCC(c2ccco2)N2CCNCC2)cc(C(F)(F)F)c1 (stereo not drawn)
Ki [1]: 158 nM

Fc1cc(F)cc(COCC(c2ccccc2)N2CCNCC2)c1 (stereo not drawn)
Ki [1]: 200 nM

FC(F)(F)c1cc(COCC(c2ccccc2)N2CCNCC2)cc(C(F)(F)F)c1 (stereo not drawn)
Papps [2]: 2.1 ×10⁻⁶ cm/s
pD2 [3]: 5.38
logD [4]: 2.41
solubility [5]: 200 µg/mL (≈ 463 µM)

C[C@@H](OC[C@H](c1ccccc1)N1CCN(CCOCC(=O)O)CC1)c1cc(C(F)(F)F)cc(C(F)(F)F)c1
inhibition [6]: < 20%

C[C@H](OC[C@H](c1ccccc1)N1CCN(CC(=O)O)CC1)c1cc(C(F)(F)F)cc(C(F)(F)F)c1
Ki [1]: 1.26 nM

C[C@@H](OC[C@H](c1ccccc1)N1CCN(CC(=O)O)CC1)c1cc(C(F)(F)F)cc(C(F)(F)F)c1
inhibition [6]: < 20%

FC(F)(F)c1cc(COCC(c2cccc(Cl)c2)N2CCNCC2)cc(C(F)(F)F)c1 (stereo not drawn)
Ki [1]: 1.58 nM

Oc1n[nH]c(CN2CCN(C(COCc3cc(C(F)(F)F)cc(C(F)(F)F)c3)c3ccccc3)CC2)n1 (stereo not drawn)
Ki [1]: 15.8 nM

c1ccc(COCC(c2ccccc2)N2CCNCC2)cc1 (stereo not drawn)
inhibition [6]: < 20%

O=C(O)CN1CCN(C(COCc2cc(C(F)(F)F)cc(C(F)(F)F)c2)c2ccccc2)CC1 (stereo not drawn)
inhibition in vivo at 10 mg/kg [7]: 76%
Papps [2]: 9.6 ×10⁻⁶ cm/s
inhibition in vivo at 10 mg/kg [8]: 53%
pD2 [3]: <4
logD [4]: 2.35
solubility [5]: 1300 µg/mL (≈ 2650 µM)
inhibition in vivo at 10 mg/kg [9]: 68%
Ki [1]: 15.8 nM
inhibition in vivo at 10 mg/kg [10]: 84%

COC(=O)CN1CCN(C(COCc2cc(C(F)(F)F)cc(C(F)(F)F)c2)c2ccccc2)CC1 (stereo not drawn)
Ki [1]: 39.8 nM

FC(F)(F)c1cc(COCC(c2ccccc2)N2CCN(CCCCc3nnn[nH]3)CC2)cc(C(F)(F)F)c1 (stereo not drawn)
inhibition in vivo at 10 mg/kg [7]: 99%
Papps [2]: 2.6 ×10⁻⁶ cm/s
inhibition in vivo at 10 mg/kg [8]: 20%
pD2 [3]: <4
inhibition in vivo at 10 mg/kg [9]: 65%
inhibition in vivo at 10 mg/kg [10]: 65%

FC(F)(F)c1cc(COCC(c2ccccc2)N2CCN(CCN3CCOCC3)CC2)cc(C(F)(F)F)c1 (stereo not drawn)
Ki [1]: 15.8 nM

C[C@@H](OC[C@@H](c1ccccc1)N1CCN(CC(=O)O)CC1)c1cc(C(F)(F)F)cc(C(F)(F)F)c1
inhibition [6]: < 20%

COc1cc(COCC(c2ccccc2)N2CCNCC2)cc(OC)c1OC (stereo not drawn)
Ki [1]: 126 nM

NC(=O)N1CCN(C(COCc2cc(C(F)(F)F)cc(C(F)(F)F)c2)c2ccccc2)CC1 (stereo not drawn)
inhibition in vivo at 10 mg/kg [7]: 47%
inhibition in vivo at 10 mg/kg [9]: 26%
Ki [1]: 20 nM
inhibition in vivo at 10 mg/kg [10]: 15%

FC(F)(F)c1cc(COCC(c2ccccc2)N2CCN(Cc3ccccn3)CC2)cc(C(F)(F)F)c1 (stereo not drawn)
Ki [1]: 2 nM

NC(=O)COCCN1CCN(C(COCc2cc(C(F)(F)F)cc(C(F)(F)F)c2)c2ccccc2)CC1 (stereo not drawn)
pKa [11]: 7.4
Ki [1]: 3.16 nM

CCOC(=O)N1CCN(C(COCc2cc(C(F)(F)F)cc(C(F)(F)F)c2)c2ccccc2)CC1 (stereo not drawn)
Ki [1]: 63.1 nM

FC(F)(F)c1ccc(COCC(c2ccccc2)N2CCNCC2)c(C(F)(F)F)c1 (stereo not drawn)
Ki [1]: 15.8 nM

COc1ccccc1COCC(c1ccccc1)N1CCNCC1 (stereo not drawn)
inhibition [6]: < 20%

O=C(O)COCCN1CCN(C(COCc2cc(C(F)(F)F)cc(C(F)(F)F)c2)c2ccccc2)CC1 (stereo not drawn)
inhibition in vivo at 10 mg/kg [7]: 61%
Papps [2]: 4.2 ×10⁻⁶ cm/s
inhibition in vivo at 10 mg/kg [8]: 29%
pD2 [3]: <4
logD [4]: 2.17
solubility [5]: > 2000 µg/mL
inhibition in vivo at 10 mg/kg [9]: 54%
Ki [1]: 15.8 nM
inhibition in vivo at 10 mg/kg [10]: 53%

N#CCN1CCN(C(COCc2cc(C(F)(F)F)cc(C(F)(F)F)c2)c2ccccc2)CC1 (stereo not drawn)
Ki [1]: 7.94 nM

CCCCN1CCN(C(COCc2cc(C(F)(F)F)cc(C(F)(F)F)c2)c2ccccc2)CC1 (stereo not drawn)
Papps [2]: 5.2 ×10⁻⁶ cm/s
inhibition in vivo at 10 mg/kg [8]: 58%
pD2 [3]: 4.6
logD [4]: 4.09
solubility [5]: 1 µg/mL (≈ 2.05 µM)
Ki [1]: 2.51 nM
inhibition in vivo at 10 mg/kg [10]: 62%

Fc1ccccc1C(COCc1cc(C(F)(F)F)cc(C(F)(F)F)c1)N1CCNCC1 (stereo not drawn)
Ki [1]: 5.01 nM

FC(F)(F)c1cc(COCC(c2cccc3ccccc23)N2CCNCC2)cc(C(F)(F)F)c1 (stereo not drawn)
Ki [1]: 1.58 nM

COc1ccccc1C(COCc1cc(C(F)(F)F)cc(C(F)(F)F)c1)N1CCNCC1 (stereo not drawn)
Ki [1]: 6.31 nM

COc1cc(CN2CCN(C(COCc3cc(C(F)(F)F)cc(C(F)(F)F)c3)c3ccccc3)C(Cc3ccccc3)C2)cc(OC)c1OC (stereo not drawn)
logD [4]: 5.2
solubility [5]: 0.6 µg/mL (≈ 0.854 µM)
Ki [1]: 251 nM

FC(F)(F)c1cc(COCC(c2ccccc2)N2CCN(CCCCc3nn[nH]n3)CC2)cc(C(F)(F)F)c1 (stereo not drawn)
logD [4]: 2.71
solubility [5]: 200 µg/mL (≈ 359 µM)
Ki [1]: 6.31 nM

FC(F)(F)c1cc(COCC(c2ccc3ccccc3c2)N2CCNCC2)cc(C(F)(F)F)c1 (stereo not drawn)
Ki [1]: 31.6 nM

O=C(O)CCCC(=O)N1CCN(C(COCc2cc(C(F)(F)F)cc(C(F)(F)F)c2)c2ccccc2)CC1 (stereo not drawn)
inhibition [6]: < 20%

FC(F)(F)c1cc(COCC(c2ccc(Cl)c(Cl)c2)N2CCNCC2)cc(C(F)(F)F)c1 (stereo not drawn)
Ki [1]: 6.31 nM

O=C(O)CCCCN1CCN(C(COCc2cc(C(F)(F)F)cc(C(F)(F)F)c2)c2ccccc2)CC1 (stereo not drawn)
Ki [1]: 10 nM

COc1cccc(C(COCc2cc(C(F)(F)F)cc(C(F)(F)F)c2)N2CCNCC2)c1 (stereo not drawn)
Ki [1]: 1 nM

Brc1cc(Br)cc(COCC(c2ccccc2)N2CCNCC2)c1 (stereo not drawn)
Ki [1]: 5.01 nM

FC(F)(F)Oc1ccccc1COCC(c1ccccc1)N1CCNCC1 (stereo not drawn)
inhibition [6]: 50%

Clc1cccc(COCC(c2ccccc2)N2CCNCC2)c1 (stereo not drawn)
Ki [1]: 398 nM

Cc1cccc(C(COCc2cc(C(F)(F)F)cc(C(F)(F)F)c2)N2CCNCC2)c1 (stereo not drawn)
Ki [1]: 3.16 nM

Fc1ccc(C(COCc2cc(C(F)(F)F)cc(C(F)(F)F)c2)N2CCNCC2)cc1 (stereo not drawn)
Ki [1]: 79.4 nM

Fc1cccc(C(COCc2cc(C(F)(F)F)cc(C(F)(F)F)c2)N2CCNCC2)c1 (stereo not drawn)
Ki [1]: 2 nM

NC(=O)CN1CCN([C@H](COCc2cc(C(F)(F)F)cc(C(F)(F)F)c2)c2ccccc2)CC1
pKa [11]: 6.2
Ki [1]: 7.94 nM

FC(F)(F)c1cc(COCC(c2cccs2)N2CCNCC2)cc(C(F)(F)F)c1 (stereo not drawn)
Ki [1]: 7.94 nM

Cc1cc(C)cc(COCC(c2ccccc2)N2CCNCC2)c1 (stereo not drawn)
Ki [1]: 25.1 nM

Clc1ccccc1COCC(c1ccccc1)N1CCNCC1 (stereo not drawn)
inhibition [6]: 50%

COc1c(Br)cc(Br)cc1COCC(c1ccccc1)N1CCNCC1 (stereo not drawn)
Ki [1]: 7.94 nM

Clc1cc(Cl)cc(COCC(c2ccccc2)N2CCNCC2)c1 (stereo not drawn)
Ki [1]: 3.16 nM

COc1ccc(C(COCc2cc(C(F)(F)F)cc(C(F)(F)F)c2)N2CCNCC2)cc1 (stereo not drawn)
Ki [1]: 50.1 nM

C[C@H](OC[C@H](c1ccccc1)N1CCN(CCOCC(=O)O)CC1)c1cc(C(F)(F)F)cc(C(F)(F)F)c1
Papps [2]: 8.7 ×10⁻⁶ cm/s
inhibition in vivo at 1 mg/kg [12]: 77%
inhibition in vivo at 1 mg/kg [13]: 70%
inhibition in vivo at 1 mg/kg [14]: 75%
pD2 [3]: <4
logD [4]: 2.64
solubility [5]: > 2000 µg/mL

NC(=O)CN1CCN([C@@H](COCc2cc(C(F)(F)F)cc(C(F)(F)F)c2)c2ccccc2)CC1
Papps [2]: 7.9 ×10⁻⁶ cm/s
pKa [11]: 6.2
pD2 [3]: 4.27
logD [4]: 3.26
solubility [5]: 2 µg/mL (≈ 4.09 µM)
Ki [1]: 10 nM

FC(F)(F)c1cc(COCC(c2ccccc2)N2CCN(Cc3nn[nH]n3)CC2)cc(C(F)(F)F)c1 (stereo not drawn)
Ki [1]: 63.1 nM

C[C@@H](OC[C@@H](c1ccccc1)N1CCN(CCOCC(=O)O)CC1)c1cc(C(F)(F)F)cc(C(F)(F)F)c1
inhibition [6]: < 20%

Fc1cc(COCC(c2ccccc2)N2CCNCC2)cc(C(F)(F)F)c1 (stereo not drawn)
Ki [1]: 12.6 nM

Clc1ccc(COCC(c2ccccc2)N2CCNCC2)cc1Cl (stereo not drawn)
Ki [1]: 100 nM

Fc1cccc(C(COCc2cc(C(F)(F)F)cc(C(F)(F)F)c2)N2CCNCC2)c1F (stereo not drawn)
Ki [1]: 3.16 nM
